PubChem BioAssay (NCI)
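Growth conditions: 96-well plates. Treatment: test compound, 48 hours, 5 concentrations. Analysis: linear interpolation between bracketing concentrations; unreached endpoints set to highest concentration. Definition used: TGI = concentration required for complete inhibition of growth.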

What was measured:
Assay in all cases: inhibition of tumour cell growth, NCI panel, 48 h
KM20L2 colon = test system: KM20L2 colon
SK-OV-3 ovarian = test system: SK-OV-3 ovarian
DLD-1 colon = test system: DLD-1 colon
SF-295 CNS = test system: SF-295 CNS
UACC-62 melanoma = test system: UACC-62 melanoma
ACHN renal = test system: ACHN renal
SK-MEL-28 melanoma = test system: SK-MEL-28 melanoma
HOP-18 NSCLC = test system: HOP-18 NSCLC
HCT-15 colon = test system: HCT-15 colon
HOP-62 NSCLC = test system: HOP-62 NSCLC
HT29 colon = test system: HT29 colon
K-562 leukemia = test system: K-562 leukemia
HCC-2998 colon = test system: HCC-2998 colon
RXF-631 renal = test system: RXF-631 renal
M19-MEL melanoma = test system: M19-MEL melanoma
OVCAR-8 ovarian = test system: OVCAR-8 ovarian
NCI-H460 lung = test system: NCI-H460 lung
UO-31 renal = test system: UO-31 renal
XF 498 CNS = test system: XF 498 CNS
IGROV1 ovarian = test system: IGROV1 ovarian
786-0 renal = test system: 786-0 renal
OVCAR-4 ovarian = test system: OVCAR-4 ovarian
SF-268 CNS = test system: SF-268 CNS
LOX IMVI melanoma = test system: LOX IMVI melanoma
SW-620 colon = test system: SW-620 colon
LXFL 529 NSCLC = test system: LXFL 529 NSCLC
CAKI-1 renal = test system: CAKI-1 renal
RXF 393 renal = test system: RXF 393 renal
HL-60(TB) leukemia = test system: HL-60(TB) leukemia
M14 melanoma = test system: M14 melanoma
SNB-78 CNS = test system: SNB-78 CNS
A549 NSCLC = test system: A549 NSCLC
SN12C renal = test system: SN12C renal
MALME-3M melanoma = test system: MALME-3M melanoma
OVCAR-3 ovarian = test system: OVCAR-3 ovarian
DMS 114 small cell lung = test system: DMS 114 small cell lung
NCI-H23 lung = test system: NCI-H23 lung
DMS 273 small cell lung = test system: DMS 273 small cell lung
HOP-92 NSCLC = test system: HOP-92 NSCLC
SNB-19 CNS = test system: SNB-19 CNS
COLO 205 colon = test system: COLO 205 colon
U251 CNS = test system: U251 CNS
EKVX NSCLC = test system: EKVX NSCLC
TK-10 renal = test system: TK-10 renal
KM12 colon = test system: KM12 colon
SK-MEL-5 melanoma = test system: SK-MEL-5 melanoma
A498 renal = test system: A498 renal
RPMI-8226 leukemia = test system: RPMI-8226 leukemia
SR leukemia = test system: SR leukemia
SF-539 CNS = test system: SF-539 CNS
MOLT-4 leukemia = test system: MOLT-4 leukemia
NCI-H522 lung = test system: NCI-H522 lung
NCI-H226 lung = test system: NCI-H226 lung
UACC-257 melanoma = test system: UACC-257 melanoma
CCRF-CEM leukemia = test system: CCRF-CEM leukemia
SNB-75 CNS = test system: SNB-75 CNS
HCT-116 colon = test system: HCT-116 colon
OVCAR-5 ovarian = test system: OVCAR-5 ovarian
SK-MEL-2 melanoma = test system: SK-MEL-2 melanoma

## Sc1ccccc1S
KM20L2 colon
  TGI: > 100 µM
SK-OV-3 ovarian
  TGI: > 100 µM
DLD-1 colon
  TGI: > 100 µM
SF-295 CNS
  TGI: > 100 µM
UACC-62 melanoma
  TGI: > 100 µM
ACHN renal
  TGI: > 100 µM
SK-MEL-28 melanoma
  TGI: > 100 µM
HOP-18 NSCLC
  TGI: > 100 µM
HCT-15 colon
  TGI: > 100 µM
HOP-62 NSCLC
  TGI: > 100 µM
HT29 colon
  TGI: > 100 µM
K-562 leukemia
  TGI: > 100 µM
HCC-2998 colon
  TGI: > 100 µM
RXF-631 renal
  TGI: > 100 µM
M19-MEL melanoma
  TGI: > 100 µM
OVCAR-8 ovarian
  TGI: > 10 µM
NCI-H460 lung
  TGI: > 100 µM
UO-31 renal
  TGI: > 10 µM
XF 498 CNS
  TGI: > 100 µM
IGROV1 ovarian
  TGI: > 100 µM
786-0 renal
  TGI: > 100 µM
OVCAR-4 ovarian
  TGI: > 100 µM
SF-268 CNS
  TGI: > 100 µM
LOX IMVI melanoma
  TGI: > 100 µM
SW-620 colon
  TGI: > 100 µM
LXFL 529 NSCLC
  TGI: > 100 µM
CAKI-1 renal
  TGI: > 100 µM
RXF 393 renal
  TGI: > 100 µM
HL-60(TB) leukemia
  TGI: > 100 µM
M14 melanoma
  TGI: > 100 µM
SNB-78 CNS
  TGI: > 100 µM
A549 NSCLC
  TGI: > 100 µM
SN12C renal
  TGI: > 100 µM
MALME-3M melanoma
  TGI: > 100 µM
OVCAR-3 ovarian
  TGI: > 100 µM
DMS 114 small cell lung
  TGI: > 100 µM
NCI-H23 lung
  TGI: > 100 µM
DMS 273 small cell lung
  TGI: > 100 µM
HOP-92 NSCLC
  TGI: > 100 µM
SNB-19 CNS
  TGI: > 100 µM
COLO 205 colon
  TGI: > 100 µM
U251 CNS
  TGI: > 100 µM
EKVX NSCLC
  TGI: > 10 µM
TK-10 renal
  TGI: > 10 µM

## CCOC(=O)c1csc(CCCCCCc2nc(C(=O)OCC)cs2)n1
KM20L2 colon
  TGI: > 100 µM
SK-OV-3 ovarian
  TGI: > 100 µM
DLD-1 colon
  TGI: > 100 µM
KM12 colon
  TGI: > 100 µM
SK-MEL-5 melanoma
  TGI: > 100 µM
SF-295 CNS
  TGI: > 100 µM
UACC-62 melanoma
  TGI: > 100 µM
ACHN renal
  TGI: > 100 µM
SK-MEL-28 melanoma
  TGI: > 83.8 µM
A498 renal
  TGI: > 100 µM
RPMI-8226 leukemia
  TGI: > 69.2 µM
HOP-18 NSCLC
  TGI: > 100 µM
HCT-15 colon
  TGI: > 100 µM
SR leukemia
  TGI: > 100 µM
HOP-62 NSCLC
  TGI: > 89.1 µM
HT29 colon
  TGI: > 100 µM
K-562 leukemia
  TGI: > 62 µM
HCC-2998 colon
  TGI: > 100 µM
RXF-631 renal
  TGI: > 100 µM
M19-MEL melanoma
  TGI: 57.5 µM
SF-539 CNS
  TGI: > 88 µM
MOLT-4 leukemia
  TGI: > 100 µM
OVCAR-8 ovarian
  TGI: > 87.2 µM
NCI-H460 lung
  TGI: > 57.7 µM
UO-31 renal
  TGI: > 100 µM
NCI-H522 lung
  TGI: > 100 µM
XF 498 CNS
  TGI: 86.3 µM
IGROV1 ovarian
  TGI: > 100 µM
786-0 renal
  TGI: > 56.7 µM
OVCAR-4 ovarian
  TGI: > 100 µM
SF-268 CNS
  TGI: > 100 µM
NCI-H226 lung
  TGI: 97.5 µM
LOX IMVI melanoma
  TGI: > 54.5 µM
UACC-257 melanoma
  TGI: 96.9 µM
CCRF-CEM leukemia
  TGI: > 63.9 µM
SW-620 colon
  TGI: > 65.4 µM
LXFL 529 NSCLC
  TGI: > 100 µM
CAKI-1 renal
  TGI: > 100 µM
SNB-75 CNS
  TGI: 70.4 µM
RXF 393 renal
  TGI: 64 µM
HL-60(TB) leukemia
  TGI: > 65.4 µM
M14 melanoma
  TGI: > 100 µM
SNB-78 CNS
  TGI: > 100 µM
A549 NSCLC
  TGI: > 66.5 µM
SN12C renal
  TGI: > 100 µM
HCT-116 colon
  TGI: > 52.3 µM
MALME-3M melanoma
  TGI: > 100 µM
OVCAR-3 ovarian
  TGI: > 100 µM
NCI-H23 lung
  TGI: 99.7 µM
DMS 273 small cell lung
  TGI: > 100 µM
HOP-92 NSCLC
  TGI: > 100 µM
OVCAR-5 ovarian
  TGI: > 100 µM
SNB-19 CNS
  TGI: > 100 µM
COLO 205 colon
  TGI: 98.1 µM
U251 CNS
  TGI: > 59.6 µM
SK-MEL-2 melanoma
  TGI: > 100 µM
EKVX NSCLC
  TGI: > 100 µM
TK-10 renal
  TGI: > 100 µM

## CC1=C(C(=O)Nc2ccc([N+](=O)[O-])cc2)C(c2cccc([N+](=O)[O-])c2)C(C(=O)Nc2ccc([N+](=O)[O-])cc2)=C(C)N1
KM20L2 colon
  TGI: > 100 µM
SK-OV-3 ovarian
  TGI: 71.6 µM
DLD-1 colon
  TGI: > 100 µM
KM12 colon
  TGI: > 100 µM
SF-295 CNS
  TGI: > 100 µM
UACC-62 melanoma
  TGI: > 100 µM
ACHN renal
  TGI: > 100 µM
SK-MEL-28 melanoma
  TGI: > 100 µM
A498 renal
  TGI: > 100 µM
RPMI-8226 leukemia
  TGI: > 100 µM
HOP-18 NSCLC
  TGI: > 100 µM
HCT-15 colon
  TGI: > 100 µM
HOP-62 NSCLC
  TGI: > 100 µM
HT29 colon
  TGI: > 100 µM
K-562 leukemia
  TGI: > 100 µM
HCC-2998 colon
  TGI: > 100 µM
RXF-631 renal
  TGI: > 100 µM
M19-MEL melanoma
  TGI: > 100 µM
SF-539 CNS
  TGI: > 100 µM
MOLT-4 leukemia
  TGI: > 100 µM
OVCAR-8 ovarian
  TGI: > 100 µM
NCI-H460 lung
  TGI: > 100 µM
UO-31 renal
  TGI: > 100 µM
NCI-H522 lung
  TGI: > 100 µM
XF 498 CNS
  TGI: 41.3 µM
IGROV1 ovarian
  TGI: > 100 µM
786-0 renal
  TGI: > 100 µM
OVCAR-4 ovarian
  TGI: > 100 µM
SF-268 CNS
  TGI: > 100 µM
NCI-H226 lung
  TGI: > 100 µM
LOX IMVI melanoma
  TGI: > 100 µM
UACC-257 melanoma
  TGI: 56.1 µM
CCRF-CEM leukemia
  TGI: > 100 µM
SW-620 colon
  TGI: > 100 µM
LXFL 529 NSCLC
  TGI: > 100 µM
SNB-75 CNS
  TGI: > 100 µM
RXF 393 renal
  TGI: > 100 µM
HL-60(TB) leukemia
  TGI: > 100 µM
M14 melanoma
  TGI: > 100 µM
SNB-78 CNS
  TGI: > 100 µM
A549 NSCLC
  TGI: > 100 µM
SN12C renal
  TGI: > 100 µM
HCT-116 colon
  TGI: > 100 µM
MALME-3M melanoma
  TGI: > 100 µM
OVCAR-3 ovarian
  TGI: > 100 µM
DMS 114 small cell lung
  TGI: > 100 µM
NCI-H23 lung
  TGI: 66.4 µM
HOP-92 NSCLC
  TGI: 39 µM
OVCAR-5 ovarian
  TGI: > 100 µM
SNB-19 CNS
  TGI: > 100 µM
COLO 205 colon
  TGI: > 100 µM
U251 CNS
  TGI: > 100 µM
SK-MEL-2 melanoma
  TGI: > 100 µM
EKVX NSCLC
  TGI: > 100 µM
TK-10 renal
  TGI: > 100 µM
